Values quoted from earlier work as cited in patent US5017613A, “Valproic acid preparations” (Sanofi, S. A., priority 1983, dated 1991).

Conditions: after oral administration

Compound: CCCC(CCC)C(=O)O [valproic acid, Dipropylacetic or valproic acid]
- bioavailability in the blood of valproic acid: ~100%
